The supplement of paper PMC10307832

Tests used:
Experiment in all cases: relative viability (nuclei count vs DMSO), 5 days (fraction); higher = more cells survive
AZ628 + Tozasertib = compound: CC1=C(C=C(C=C1)NC(=O)C2=CC(=CC=C2)C(C)(C)C#N)NC3=CC4=C(C=C3)N=CN(C4=O)C [AZ628] + Cc1cc(Nc2cc(N3CCN(C)CC3)nc(Sc3ccc(NC(=O)C4CC4)cc3)n2)n[nH]1 [Tozasertib] (partner 0.1 µM)
In short: (§1)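 Relative viability is defined as nuclei in treated wells over nuclei in vehicle wells. Duplicate plates were run and medians reported. Lung cancer cell lines in 1536-well plates were dosed by pin tool one day after seeding, with one drug or with a fixed anchor-drug dose plus five library-drug doses (not always all listed) in √10 steps, and nuclei were counted after 5 days.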

AZ628 + Luminespib = compound: CC1=C(C=C(C=C1)NC(=O)C2=CC(=CC=C2)C(C)(C)C#N)NC3=CC4=C(C=C3)N=CN(C4=O)C [AZ628] + CCNC(=O)c1noc(-c2cc(C(C)C)c(O)cc2O)c1-c1ccc(CN2CCOCC2)cc1 [Luminespib] (partner 0.01 µM)
In short: as §1

Darinaparsin + AZD7762 = compound: C[As](C)SC[C@H](NC(=O)CC[C@H](N)C(=O)O)C(=O)NCC(=O)O [Darinaparsin] + NC(=O)Nc1cc(-c2cccc(F)c2)sc1C(=O)N[C@H]1CCCNC1 [AZD7762] (partner 0.2 µM)
In short: as §1

QS11 + Tozasertib = compound: C1CC2=C(C1)C=C(C=C2)OC3=NC(=C4C(=N3)N(C=N4)CC5=CC=C(C=C5)C6=CC=CC=C6)N[C@@H](CC7=CC=CC=C7)CO [QS11] + Cc1cc(Nc2cc(N3CCN(C)CC3)nc(Sc3ccc(NC(=O)C4CC4)cc3)n2)n[nH]1 [Tozasertib] (partner 0.1 µM)
In short: as §1

NCI-H2342
relative viability (AZ628 + Tozasertib; first compound 0.08 µM): 0.616
relative viability (AZ628 + Tozasertib; first compound 0.253 µM): 0.529
relative viability (AZ628 + Tozasertib; first compound 0.8 µM): 0.673
relative viability (AZ628 + Tozasertib; first compound 2.53 µM): 0.514
relative viability (AZ628 + Tozasertib; first compound 8 µM): 0.471
relative viability (AZ628 + Luminespib; first compound 0.08 µM): 0.763
relative viability (AZ628 + Luminespib; first compound 0.253 µM): 0.865
relative viability (AZ628 + Luminespib; first compound 0.8 µM): 0.736
relative viability (AZ628 + Luminespib; first compound 2.53 µM): 0.821
relative viability (AZ628 + Luminespib; first compound 8 µM): 0.825
relative viability (Darinaparsin + AZD7762; first compound 0.08 µM): 0.642
relative viability (Darinaparsin + AZD7762; first compound 0.8 µM): 0.463
relative viability (Darinaparsin + AZD7762; first compound 2.53 µM): 0.418
relative viability (Darinaparsin + AZD7762; first compound 8 µM): 0.498
relative viability (QS11 + Tozasertib; first compound 0.08 µM): 0.479
relative viability (QS11 + Tozasertib; first compound 0.253 µM): 0.46
relative viability (QS11 + Tozasertib; first compound 0.8 µM): 0.62
relative viability (QS11 + Tozasertib; first compound 2.53 µM): 0.474
relative viability (QS11 + Tozasertib; first compound 8 µM): 0.436

NCI-H2347
relative viability (AZ628 + Tozasertib; first compound 0.08 µM): 0.491
relative viability (AZ628 + Tozasertib; first compound 0.253 µM): 0.514
relative viability (AZ628 + Tozasertib; first compound 0.8 µM): 0.555
relative viability (AZ628 + Tozasertib; first compound 2.53 µM): 0.514
relative viability (AZ628 + Tozasertib; first compound 8 µM): 0.303
relative viability (AZ628 + Luminespib; first compound 0.08 µM): 0.287
relative viability (AZ628 + Luminespib; first compound 0.253 µM): 0.239
relative viability (AZ628 + Luminespib; first compound 0.8 µM): 0.301
relative viability (AZ628 + Luminespib; first compound 2.53 µM): 0.255
relative viability (AZ628 + Luminespib; first compound 8 µM): 0.218
relative viability (Darinaparsin + AZD7762; first compound 0.08 µM): 0.668
relative viability (Darinaparsin + AZD7762; first compound 0.8 µM): 0.583
relative viability (Darinaparsin + AZD7762; first compound 2.53 µM): 0.734
relative viability (Darinaparsin + AZD7762; first compound 8 µM): 0.871
relative viability (QS11 + Tozasertib; first compound 0.08 µM): 0.434
relative viability (QS11 + Tozasertib; first compound 0.253 µM): 0.523
relative viability (QS11 + Tozasertib; first compound 0.8 µM): 0.51
relative viability (QS11 + Tozasertib; first compound 2.53 µM): 0.436
relative viability (QS11 + Tozasertib; first compound 8 µM): 0.572

NCI-H2405
relative viability (AZ628 + Tozasertib; first compound 0.08 µM): 0.5
relative viability (AZ628 + Tozasertib; first compound 0.253 µM): 0.637
relative viability (AZ628 + Tozasertib; first compound 0.8 µM): 0.539
relative viability (AZ628 + Tozasertib; first compound 2.53 µM): 0.529
relative viability (AZ628 + Tozasertib; first compound 8 µM): 0.457
relative viability (AZ628 + Luminespib; first compound 0.08 µM): 0.366
relative viability (AZ628 + Luminespib; first compound 0.253 µM): 0.425
relative viability (AZ628 + Luminespib; first compound 0.8 µM): 0.411
relative viability (AZ628 + Luminespib; first compound 2.53 µM): 0.365
relative viability (AZ628 + Luminespib; first compound 8 µM): 0.355
relative viability (Darinaparsin + AZD7762; first compound 0.08 µM): 1.04
relative viability (Darinaparsin + AZD7762; first compound 0.8 µM): 0.666
relative viability (Darinaparsin + AZD7762; first compound 2.53 µM): 0.68
relative viability (Darinaparsin + AZD7762; first compound 8 µM): 0.817
relative viability (QS11 + Tozasertib; first compound 0.08 µM): 0.752
relative viability (QS11 + Tozasertib; first compound 0.253 µM): 0.699
relative viability (QS11 + Tozasertib; first compound 0.8 µM): 0.725
relative viability (QS11 + Tozasertib; first compound 2.53 µM): 0.758
relative viability (QS11 + Tozasertib; first compound 8 µM): 0.899

NCI-H3122
relative viability (AZ628 + Tozasertib; first compound 0.08 µM): 0.392
relative viability (AZ628 + Tozasertib; first compound 0.253 µM): 0.339
relative viability (AZ628 + Tozasertib; first compound 0.8 µM): 0.345
relative viability (AZ628 + Tozasertib; first compound 2.53 µM): 0.254
relative viability (AZ628 + Tozasertib; first compound 8 µM): 0.189
relative viability (AZ628 + Luminespib; first compound 0.08 µM): 0.0933
relative viability (AZ628 + Luminespib; first compound 0.253 µM): 0.0771
relative viability (AZ628 + Luminespib; first compound 0.8 µM): 0.11
relative viability (AZ628 + Luminespib; first compound 2.53 µM): 0.0973
relative viability (AZ628 + Luminespib; first compound 8 µM): 0.0958
relative viability (Darinaparsin + AZD7762; first compound 0.08 µM): 1.14
relative viability (Darinaparsin + AZD7762; first compound 0.8 µM): 1
relative viability (Darinaparsin + AZD7762; first compound 2.53 µM): 0.937
relative viability (Darinaparsin + AZD7762; first compound 8 µM): 1.34
relative viability (QS11 + Tozasertib; first compound 0.08 µM): 0.45
relative viability (QS11 + Tozasertib; first compound 0.253 µM): 0.496
relative viability (QS11 + Tozasertib; first compound 2.53 µM): 0.374
relative viability (QS11 + Tozasertib; first compound 8 µM): 0.201
